Assay results published in EPA's ToxRefDB 2.

Legend:
[1] = tested on: rat; conditions: Sub-acute repeat dose toxicity, Oral, Gavage/Intubation, dose end: 7 day, group: systemic
[2] = tested on: rat; conditions: Sub-acute repeat dose toxicity, Oral, Gavage/Intubation, dose end: 28 day, group: systemic
[3] = tested on: rat; conditions: Sub-acute repeat dose toxicity, Oral, Gavage/Intubation, dose end: 7 day, group: systemic; remark: listed apart in the source
[4] = tested on: primate; conditions: Sub-acute repeat dose toxicity; Oral; Gavage/Intubation; dose end: 5 day; group: systemic; systemic / clinical chemistry / aspartate aminotransferase (ast/sgot) / aspartate aminotransferase (ast/sgot) + systemic / clinical …
[5] = tested on: rat; conditions: Sub-acute repeat dose toxicity; Oral; Gavage/Intubation; dose end: 4 day; group: systemic; systemic / in life observation / clinical signs / impaired reflex, nos
[6] = tested on: primate; conditions: Sub-acute repeat dose toxicity; Oral; Gavage/Intubation; dose end: 5 day; group: systemic; systemic / in life observation / food consumption / food consumption + systemic / in life observation / clinical signs / emesis + systemic…
[7] = tested on: rat; conditions: Prenatal developmental toxicity study; sprague dawley; Oral; Gavage/Intubation; dose end: 17 GD; group: maternal; systemic / in life observation / body weight / body weight gain + systemic / in life observation / clinical signs / fur (altered appearance…
[8] = tested on: primate; conditions: Chronic toxicity, macaque, Oral, Gavage/Intubation, dose end: 6 month, group: systemic
[9] = tested on: dog; conditions: Sub-acute repeat dose toxicity, beagle, Oral, Capsule, dose end: 1 month, group: systemic
[10] = tested on: rat; conditions: Prenatal developmental toxicity study; sprague dawley; Oral; Gavage/Intubation; dose end: 17 GD; group: maternal; systemic / in life observation / body weight / body weight + systemic / in life observation / body weight / body weight gain + systemic / in…
[11] = tested on: rat; conditions: Fertility (Segment I), sprague dawley, Oral, Gavage/Intubation, dose end: 7 GD
[12] = tested on: rat; conditions: Chronic toxicity, sprague dawley, Oral, Gavage/Intubation, dose end: 6 month, group: systemic
[13] = tested on: primate; conditions: Sub-acute repeat dose toxicity, macaque, Oral, Gavage/Intubation, dose end: 1 month, group: systemic
[14] = tested on: rat; conditions: Sub-acute repeat dose toxicity; sprague dawley; Oral; Gavage/Intubation; dose end: 28 day; group: systemic; systemic / in life observation / body weight / body weight gain + systemic / in life observation / food consumption / food consumption + …
[15] = tested on: rabbit; conditions: Prenatal developmental toxicity study, new zealand white, Oral, Gavage/Intubation, dose end: 19 GD
[16] = tested on: dog; conditions: Subchronic oral toxicity in nonrodent, beagle, Feed, dose end: 14 week, group: systemic
[17] = tested on: rat; conditions: Multigenerational reproductive toxicity study, wistar, Oral, Feed, dose end: 2 generation
[18] = tested on: rat; conditions: Subchronic oral toxicity in rodents, wistar, Feed, dose end: 14 week, group: systemic
[19] = tested on: dog; conditions: Chronic toxicity; beagle; Oral; Feed; dose end: 52 week; group: systemic; systemic / organ weight / adrenal gland / relative to body weight + systemic / organ weight / testes / relative to body weight + systemic / …
[20] = tested on: mouse; conditions: Carcinogenicity, cd1, Oral, Feed, dose end: 18 month, group: systemic
[21] = tested on: mouse; conditions: Subchronic oral toxicity in rodents, cd1, Feed, dose end: 13 week, group: systemic
[22] = tested on: rat; conditions: Subchronic oral toxicity in rodents, wistar, Feed, dose end: 13 week, group: systemic, systemic / clinical chemistry / alanine aminotransferase (alt/sgpt) / alanine aminotransferase (alt/sgpt) + systemic / clinical chemistry / …
[23] = tested on: rat; conditions: Combined chronic toxicity/carcinogenicity, wistar, Oral, Feed, dose end: 120 week, group: systemic
[24] = systemic / hematology / blood clotting / blood clotting - prothrombin time + systemic / hematology / lymphocyte / lymphocyte + systemic / in…
[25] = systemic / hematology / blood clotting / blood clotting - prothrombin time + systemic / organ weight / heart / relative to body weight + …
[26] = systemic / hematology / blood clotting / blood clotting - activated partial thromboplastin time + systemic / hematology / blood clotting / …
[27] = systemic / hematology / mean corpuscular hemoglobin (mch) / mean corpuscular hemoglobin (mch) + systemic / hematology / mean corpuscular …
[28] = systemic / hematology / blood clotting / blood clotting - prothrombin time + systemic / organ weight / liver / absolute + systemic / organ …
[29] = systemic / clinical chemistry / alanine aminotransferase (alt/sgpt) / alanine aminotransferase (alt/sgpt)
[30] = systemic / clinical chemistry / alanine aminotransferase (alt/sgpt) / alanine aminotransferase (alt/sgpt) + systemic / pathology microscopic…
[31] = systemic / clinical chemistry / alanine aminotransferase (alt/sgpt) / alanine aminotransferase (alt/sgpt) + systemic / clinical chemistry / …
[32] = group: maternal, reproductive / reproductive performance / estrous cycle / abnormal
[33] = group: parental, systemic / in life observation / body weight / body weight gain + systemic / in life observation / clinical signs / piloerection + systemic…
[34] = group: parental, systemic / in life observation / body weight / body weight gain + systemic / in life observation / food consumption / food consumption + …
[35] = systemic / clinical chemistry / [other] / [other] + systemic / clinical chemistry / phosphorus / phosphate + systemic / clinical chemistry…
[36] = systemic / clinical chemistry / [other] / [other] + systemic / clinical chemistry / phosphorus / phosphate + systemic / in life observation…
[37] = systemic / in life observation / clinical signs / [other] + systemic / in life observation / clinical signs / defecation (diarrhea) + …
[38] = systemic / in life observation / food consumption / food consumption
[39] = group: developmental, developmental / developmental malformation / eye / open eye
[40] = group: maternal, systemic / in life observation / body weight / body weight gain + systemic / in life observation / food consumption / food consumption + …
[41] = group: maternal, systemic / pathology gross / pancreas / irregular surface + systemic / pathology gross / pancreas / reduced size
[42] = systemic / clinical chemistry / alderin epoxidase / alderin epoxidase + systemic / clinical chemistry / ethoxycoumarin deethylase / …
[43] = systemic / organ weight / adrenal gland / relative to body weight + systemic / pathology microscopic / adrenal gland / vacuolization …
[44] = group: offspring, systemic / in life observation / body weight / offspring (pup) weight + systemic / in life observation / body weight / offspring (pup) …
[45] = group: parental, systemic / organ weight / liver / absolute + systemic / organ weight / liver / relative to body weight
[46] = systemic / clinical chemistry / thyroid stimulating hormone (thyrotropin) (tsh) / thyroid stimulating hormone (=thyrotropin) (tsh)
[47] = systemic / organ weight / adrenal gland / nos + systemic / organ weight / kidney / absolute + systemic / organ weight / kidney / relative to…
[48] = systemic / pathology microscopic / adrenal gland / pigmentation
[49] = systemic / pathology microscopic / liver / hypertrophy + systemic / pathology microscopic / testes / hypertrophy
[50] = systemic / pathology microscopic / liver / hypertrophy + systemic / pathology microscopic / testes / hypertrophy + systemic / clinical …
[51] = systemic / pathology microscopic / liver / basophilic focus

## O=C(CO)N1CCC(c2[nH]nc(-c3ccc(Cl)cc3F)c2-c2ccncn2)CC1
[1]; [24]
  LOAEL: > 2000 mg/kg/day
  NOAEL: ≥ 2000 mg/kg/day
[1]; [25]
  LEL: 200 mg/kg/day
  NEL: < 200 mg/kg/day
[2]; [26]
  LOAEL: > 2000 mg/kg/day
  NOAEL: ≥ 2000 mg/kg/day
[2]; [27]
  LEL: 20 mg/kg/day
  NEL: < 20 mg/kg/day
[3]; [25]
  LOAEL: > 2000 mg/kg/day
  NOAEL: ≥ 2000 mg/kg/day
[3]; [28]
  LEL: 200 mg/kg/day
  NEL: < 200 mg/kg/day
[4]
  LEL: 600 mg/kg/day
  LOAEL: > 600 mg/kg/day
  NEL: < 600 mg/kg/day
  NOAEL: ≥ 600 mg/kg/day
[5]
  LEL: 50 mg/kg/day
  LOAEL: > 2000 mg/kg/day
  NEL: < 50 mg/kg/day
  NOAEL: ≥ 2000 mg/kg/day
[6]
  LEL: 600 mg/kg/day
  LOAEL: > 600 mg/kg/day
  NEL: < 600 mg/kg/day
  NOAEL: ≥ 600 mg/kg/day

## COc1cc(-c2nc(NC(=O)c3cc4cc(C)cc(C)c4n3CC(=O)O)sc2CCC2CCCCC2)c(OC)cc1Cl.O=C(O)C(F)(F)F
[7]
  LEL: 50 mg/kg/day
  LOAEL: > 1000 mg/kg/day
  NEL: < 50 mg/kg/day
  NOAEL: ≥ 1000 mg/kg/day
[8]; [29]
  LEL: 0.6 mg/kg/day
  NEL: < 0.6 mg/kg/day
[8]; [30]
  LOAEL: 3 mg/kg/day
  NOAEL: 0.6 mg/kg/day
[9]; [31]
  LOAEL: > 25 mg/kg/day
  NOAEL: ≥ 25 mg/kg/day
[9]; [30]
  LEL: 1 mg/kg/day
  NEL: < 1 mg/kg/day
[10]
  LEL: 250 mg/kg/day
  LOAEL: > 500 mg/kg/day
  NEL: < 250 mg/kg/day
  NOAEL: ≥ 500 mg/kg/day
[11]; [32]
  LEL: 200 mg/kg/day
  LOAEL: > 1000 mg/kg/day
  NEL: 50 mg/kg/day
  NOAEL: ≥ 1000 mg/kg/day
[11]; [33]
  LOAEL: > 1000 mg/kg/day
  NOAEL: ≥ 1000 mg/kg/day
[11]; [34]
  LEL: 50 mg/kg/day
  NEL: < 50 mg/kg/day
[12]; [35]
  LOAEL: > 250 mg/kg/day
  NOAEL: ≥ 250 mg/kg/day
[12]; [36]
  LEL: 1 mg/kg/day
  NEL: < 1 mg/kg/day
[13]; [37]
  LOAEL: 5 mg/kg/day
  NOAEL: 1 mg/kg/day
[13]; [38]
  LEL: 1 mg/kg/day
  NEL: < 1 mg/kg/day
[14]
  LEL: 1 mg/kg/day
  LOAEL: > 30 mg/kg/day
  NEL: < 1 mg/kg/day
  NOAEL: ≥ 30 mg/kg/day
[15]; [39]
  LEL: 10 mg/kg/day
  LOAEL: 10 mg/kg/day
  NEL: 3 mg/kg/day
  NOAEL: 3 mg/kg/day
[15]; [40]
  LOAEL: > 10 mg/kg/day
  NOAEL: ≥ 10 mg/kg/day
[15]; [41]
  LEL: 0.5 mg/kg/day
  NEL: < 0.5 mg/kg/day

## CCC(C)(C)C(=O)OC1=C(c2ccc(Cl)cc2Cl)C(=O)OC12CCCCC2 [Spirodiclofen]
[16]; [42]
  LEL: 7.7 mg/kg/day
  NEL: < 7.7 mg/kg/day
[16]; [43]
  LOAEL: 8.4 mg/kg/day
  NOAEL: < 8.4 mg/kg/day
[17]; [44]
  LEL: 30.2 mg/kg/day
  LOAEL: 30.2 mg/kg/day
  NEL: 6.4 mg/kg/day
  NOAEL: 6.4 mg/kg/day
[17]; group: parental, systemic / in life observation / body weight / body weight + systemic / organ weight / liver / absolute
  LOAEL: 26.2 mg/kg/day
[17]; group: parental, systemic / in life observation / body weight / body weight + systemic / organ weight / liver / absolute + systemic / in life observation / …
  NOAEL: 5.2 mg/kg/day
[17]; [45]
  LEL: 5.2 mg/kg/day
  NEL: < 5.2 mg/kg/day
[18]; [46]
  LEL: 8.1 mg/kg/day
  NEL: < 8.1 mg/kg/day
[18]; systemic / pathology microscopic / adrenal gland / vacuolization cytoplasmic
  LOAEL: 47.1 mg/kg/day
[18]; systemic / pathology microscopic / adrenal gland / vacuolization cytoplasmic + systemic / clinical chemistry / alanine aminotransferase (alt…
  NOAEL: 8.1 mg/kg/day
[19]
  LEL: 4.33 mg/kg/day
  LOAEL: 4.33 mg/kg/day
  NEL: 1.38 mg/kg/day
  NOAEL: 1.38 mg/kg/day
[20]; [47]
  LOAEL: 610 mg/kg/day
  NOAEL: 4.1 mg/kg/day
[20]; [48]
  LEL: 5.1 mg/kg/day
  NEL: < 5.1 mg/kg/day
[21]; [49]
  LEL: 164 mg/kg/day
  LOAEL: 164 mg/kg/day
[21]; [50]
  NEL: 15 mg/kg/day
  NOAEL: 15 mg/kg/day

## O=C(NC(=O)c1c(F)cccc1F)Nc1cc(Cl)c(F)c(Cl)c1F [Teflubenzuron]
[22]
  LEL: 81.6 mg/kg/day
  LOAEL: 81.6 mg/kg/day
  NEL: 8 mg/kg/day
  NOAEL: 8 mg/kg/day
[23]; [31]
  LOAEL: 26 mg/kg/day
  NOAEL: 5.1 mg/kg/day
[23]; [51]
  LEL: 1.3 mg/kg/day
  NEL: < 1.3 mg/kg/day
